Key:
BT-474 [1] = assay: normalised viability (% of control), CellTiter-Blue; higher = more viable cells (about 100 = DMSO control); details: 100 nM; incubation time: 72 h
Protocol: (§1)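 DSRT, CellTiter-Blue viability, 72 h incubation. Signal is normalised to DMSO and benzethonium chloride controls. Value is the normalised response at dose 3.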

BT-549 = assay: as above; details: 100 nM; incubation time: 72 h
Protocol: as §1

CAL-120 = assay: as above; details: 100 nM; incubation time: 72 h
Protocol: as §1

CAL-148 = assay: as above; details: 10 nM; incubation time: 72 h
Protocol: as §1

CAL-51 = assay: as above; details: 10 nM; incubation time: 72 h
Protocol: as §1

CAL-85-1 = assay: as above; details: 10 nM; incubation time: 72 h
Protocol: as §1

DU-4475 [2] = assay: as above; details: 10 nM; incubation time: 72 h
Protocol: as §1

HCC1143 [3] = assay: as above; details: 100 nM; incubation time: 72 h
Protocol: as §1

HCC1599 [4] = assay: as above; details: 100 nM; incubation time: 72 h
Protocol: as §1

HCC1937 [5] = assay: as above; details: 100 nM; incubation time: 72 h
Protocol: as §1

HDQ-P1 = assay: as above; details: 10 nM; incubation time: 72 h
Protocol: as §1

Hs578T [6] = assay: as above; details: 100 nM; incubation time: 72 h
Protocol: as §1

MDA-MB-231 = assay: as above; details: 100 nM; incubation time: 72 h
Protocol: as §1

MDA-MB-436 [7] = assay: as above; details: 100 nM; incubation time: 72 h
Protocol: as §1

MDA-MB-453 [8] = assay: as above; details: 10 nM; incubation time: 72 h
Protocol: as §1

MDA-MB-468 = assay: as above; details: 100 nM; incubation time: 72 h
Protocol: as §1

MFM-223 = assay: as above; details: 100 nM; incubation time: 72 h
Protocol: as §1

SK-BR-3 = assay: as above; details: 100 nM; incubation time: 72 h
Protocol: as §1

BT-474 [9] = assay: normalised viability (% of control), CellTiter-Blue; higher = more viable cells (about 100 = DMSO control); details: incubation time: 72 h
In short: (§2)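 Breast cancer cell lines were treated for 72 h in 384-well format and measured by CellTiter-Blue fluorescence at 560/590 nm. Results were normalised per plate to vehicle (100) and a positive kill control (0). The entry is normalised viability at a single listed concentration of the series.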

DU-4475 [10] = assay: as above; details: incubation time: 72 h
In short: as §2

HCC1143 [11] = assay: as above; details: incubation time: 72 h
In short: as §2

HCC1599 [12] = assay: as above; details: incubation time: 72 h
In short: as §2

HCC1937 [13] = assay: as above; details: incubation time: 72 h
In short: as §2

Hs578T [14] = assay: as above; details: incubation time: 72 h
In short: as §2

MDA-MB-436 [15] = assay: as above; details: incubation time: 72 h
In short: as §2

MDA-MB-453 [16] = assay: as above; details: incubation time: 72 h
In short: as §2

MDA-MB-453 [17] = assay: drug sensitivity score (DSS), CellTiter-Blue viability (DSS (AUC-based score)); higher = stronger viability inhibition; extreme values may be limits of the assay; details: incubation time: 72 h
Protocol: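 DSRT with the CellTiter-Blue (resazurin reduction) viability readout, fluorescence 560/590 nm, 72 h incubation. Plates were normalised to DMSO and benzethonium chloride controls. DSS is computed from the area under the fitted dose-response curve (5 or 9 concentrations).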

CN(Cc1cnc2nc(N)nc(N)c2n1)c1ccc(C(=O)N[C@@H](CCC(=O)O)C(=O)O)cc1 [Methotrexate]
Details	drug sensitivity score	normalised viability [%]
BT-474 [1]	–	124
BT-549	–	87.2
CAL-51	–	107
CAL-85-1	–	104
CAL-120	–	50.4
CAL-148	–	105
DU-4475 [2]	–	122
HCC1143 [3]	–	69.3
HCC1599 [4]	–	106
HCC1937 [5]	–	96.2
HDQ-P1	–	95.7
Hs578T [6]	–	78.6
MDA-MB-231	–	85.9
MDA-MB-436 [7]	–	80.7
MDA-MB-453 [8]	–	122
MDA-MB-453 [17]	0	–
MDA-MB-468	–	46.3
MFM-223	–	98.2
SK-BR-3	–	49

normalised viability [%]
Details	BT-474 [9]	DU-4475 [10]	HCC1143 [11]	HCC1599 [12]	HCC1937 [13]	Hs578T [14]	MDA-MB-436 [15]	MDA-MB-453 [16]
3 nM	–	102	–	–	–	–	–	108
10 nM	115	–	87.8	102	86.5	106	111	–
30 nM	–	99.3	–	–	–	–	–	102
100 nM	–	101	–	–	–	–	–	90.7
1000 nM	118	–	68.9	75.6	72.1	86.5	64.4	–
10000 nM	128	–	65.4	103	76.1	79.4	93.6	–

COc1c2occc2cc2ccc(=O)oc12 [Methoxsalen]
Details	drug sensitivity score	normalised viability [%]
BT-474 [1]	–	115
BT-549	–	109
CAL-51	–	105
CAL-85-1	–	100
CAL-120	–	106
CAL-148	–	99.5
DU-4475 [2]	–	95.5
HCC1143 [3]	–	106
HCC1599 [4]	–	104
HCC1937 [5]	–	104
HDQ-P1	–	99.3
Hs578T [6]	–	102
MDA-MB-231	–	100
MDA-MB-436 [7]	–	103
MDA-MB-453 [8]	–	95.2
MDA-MB-453 [17]	1.68	–
MDA-MB-468	–	104
MFM-223	–	92.9
SK-BR-3	–	98.6

normalised viability [%]
Details	BT-474 [9]	DU-4475 [10]	HCC1143 [11]	HCC1599 [12]	HCC1937 [13]	Hs578T [14]	MDA-MB-436 [15]	MDA-MB-453 [16]
3 nM	–	95.6	–	–	–	–	–	119
10 nM	123	–	91.8	106	68.3	55.3	90.6	–
30 nM	–	111	–	–	–	–	–	103
100 nM	–	111	–	–	–	–	–	112
1000 nM	102	–	99.1	85	36	138	87.1	–
10000 nM	117	–	94.2	93.5	77.7	110	93.8	–
